One assay deals with T1, human GPR119 receptor (Homo sapiens, UniProt Q8TDV5, S329A/T327A).
T1 construct: N-terminal leader […]; expressed in transfected cells
T1 sequence (Q8TDV5 with tags, fused parts or gaps T327A/S329A): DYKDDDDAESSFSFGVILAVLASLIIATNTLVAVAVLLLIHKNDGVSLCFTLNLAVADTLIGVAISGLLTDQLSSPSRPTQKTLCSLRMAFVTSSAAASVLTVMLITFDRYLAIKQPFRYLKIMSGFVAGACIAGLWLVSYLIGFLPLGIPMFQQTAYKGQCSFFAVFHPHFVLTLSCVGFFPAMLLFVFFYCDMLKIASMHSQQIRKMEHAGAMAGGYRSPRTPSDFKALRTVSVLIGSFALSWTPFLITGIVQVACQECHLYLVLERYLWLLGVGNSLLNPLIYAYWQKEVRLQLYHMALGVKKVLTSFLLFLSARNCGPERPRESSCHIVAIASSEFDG
The assay can be described thus: cAMP assay (LANCE cAMP-384) in HEK293 cells stably expressing mutant human GPR119 receptor. It is filed as cell-based. The settings on record: cAMP accumulation, HEK293 cells stably expressing mutant human GPR119; read-out: EC50. Summed up: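 Agonist EC50 came from nonlinear regression over 12 concentrations (30 μM–100 pM), with % stimulation at 10 μM where no EC50 was obtained. Cells: stable HEK293 with mutant human GPR119 (T327A/S329A), 20 min compound at 37° C; cAMP read by LANCE kit with standard curve.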
For orientation: Cyclic AMP is a second messenger, typically raised through Gs and lowered through Gi signalling.

The subject of a further assay is male ZDF rats. The assay is described as follows: In vivo OGTT (oral glucose tolerance test) in Sprague Dawley or Zucker Diabetic Fatty rats. Also on record: species or system rat. The settings on record: nine week old male ZDF rats, 30 mg/kg p.o. 30 minutes prior to glucose bolus, 2 hrs post glucose bolus. On the procedure: Nine to 13 week old Male Sprague Dawley rats weighing 250 g-350 g or 9 week old male Zucker Diabetic Fatty rats weighing 300 g-450 g were fasted overnight for 16 hours. At time zero, blood was collected using the tail-nick method and glucose was measured with a glucometer (Bayer HealthCare) Animals then immediately received either vehicle (80% Labrasol, Gattefossé, France) or 3, 10, or 30 mg/kg GPR119 agonist (p.o., volume 2 mL/kg). Thirty minutes later blood glucose was again measured preceding the administration of a glucose bolus (p.o. 2 g/kg, volume 6 mL/kg). Blood glucose was then determined at 10, 20, 30, 60, 90, 120, and 180 minutes post glucose bolus or 20, 40, 60, 80, 100, and 120 minutes past glucose bolus.
Nine week old male ZDF rats were dosed with either 30 mg/kg of Compound 2-35 or 30 mg/kg of Compound 8-1 30 minutes prior to administration of the glucose bolus.

Molecules are shown by their SMILES.

For `CC(C)OC(=O)N1CCC(ON=C2CCN(c3cc(F)c([C@@H](C)N)cc3F)CC2)CC1` [Example 8-1, 4-{1-[4-((R)-1-Amino-ethyl)-2,5-difluoro-phenyl]-piperidin-4-ylideneaminooxy}-piperidine-1-carboxylic acid isopropyl ester], the EC50 at human GPR119 receptor was found to be 538 nM. For the same compound, the “reduction of glucose excursion compared to vehicle (glucose area under the curve)” value with male ZDF rats is given as 70%.

What is called EC50 is the midpoint of the concentration-response curve.

The record behind these values is patent US8293729B2 (Boehringer Ingelheim International GmbH, priority 2009, dated 2012).
